Experimental data as given in ChEMBL document CHEMBL4507294, “Data for DCP probe MSD-CYP11B2” (2021).

Legend:
[1] = molecular target: Vascular endothelial growth factor receptor 2 (Homo sapiens) (UniProt P35968); settings: Compound concentration 1000.0 nM
[2] = molecular target: Serine/threonine-protein kinase BRSK2 (Homo sapiens) (UniProt Q8IWQ3); settings: Compound concentration 1000.0 nM
[3] = molecular target: Receptor-interacting serine/threonine-protein kinase 2 (Homo sapiens) (UniProt O43353); settings: Compound concentration 1000.0 nM
[4] = molecular target: Tyrosine-protein kinase receptor Tie-1 (Homo sapiens) (UniProt P35590); settings: Compound concentration 1000.0 nM
[5] = molecular target: SRSF protein kinase 1 (Homo sapiens) (UniProt Q96SB4); settings: Compound concentration 1000.0 nM
[6] = molecular target: 5'-AMP-activated protein kinase catalytic subunit alpha-1 (Homo sapiens) (UniProt Q13131); settings: Compound concentration 1000.0 nM
[7] = molecular target: Protein kinase C theta type (Homo sapiens) (UniProt Q04759); settings: Compound concentration 1000.0 nM
[8] = molecular target: MAP kinase-activated protein kinase 5 (Homo sapiens) (UniProt Q8IW41); settings: Compound concentration 1000.0 nM
[9] = molecular target: Mitogen-activated protein kinase 10 (Homo sapiens) (UniProt P53779); settings: Compound concentration 1000.0 nM
[10] = test system: Phosphatidylinositol 4,5-bisphosphate 3-kinase catalytic subunit alpha isoform (Homo sapiens), P42336 [E545K]; settings: Compound concentration 1000.0 nM
[11] = molecular target: Cyclin-dependent kinase 11B (Homo sapiens) (UniProt P21127); settings: Compound concentration 1000.0 nM
[12] = test system: Tyrosine-protein kinase ABL1 (Homo sapiens), P00519 [E255K]; settings: Compound concentration 1000.0 nM
[13] = molecular target: Calcium/calmodulin-dependent protein kinase type 1G (Homo sapiens) (UniProt Q96NX5); settings: Compound concentration 1000.0 nM
[14] = molecular target: Ephrin type-B receptor 1 (Homo sapiens) (UniProt P54762); settings: Compound concentration 1000.0 nM
[15] = molecular target: Phosphatidylinositol 3-kinase catalytic subunit type 3 (Homo sapiens) (UniProt Q8NEB9); settings: Compound concentration 1000.0 nM
[16] = molecular target: Serine/threonine-protein kinase mTOR (Homo sapiens) (UniProt P42345); settings: Compound concentration 1000.0 nM
[17] = molecular target: NUAK family SNF1-like kinase 1 (Homo sapiens) (UniProt O60285); settings: Compound concentration 1000.0 nM
[18] = molecular target: 1-phosphatidylinositol 3-phosphate 5-kinase (Homo sapiens) (UniProt Q9Y2I7); settings: Compound concentration 1000.0 nM
[19] = molecular target: Serine/threonine-protein kinase STK11 (Homo sapiens) (UniProt Q15831); settings: Compound concentration 1000.0 nM
[20] = molecular target: Receptor-interacting serine/threonine-protein kinase 4 (Homo sapiens) (UniProt P57078); settings: Compound concentration 1000.0 nM
[21] = molecular target: Calcium/calmodulin-dependent protein kinase type II subunit gamma (Homo sapiens) (UniProt Q13555); settings: Compound concentration 1000.0 nM
[22] = molecular target: Mitogen-activated protein kinase kinase kinase kinase 4 (Homo sapiens) (UniProt O95819); settings: Compound concentration 1000.0 nM
[23] = molecular target: Serine/threonine-protein kinase MARK1 (Homo sapiens) (UniProt Q9P0L2); settings: Compound concentration 1000.0 nM
[24] = molecular target: Serine/threonine-protein kinase SBK1 (Homo sapiens) (UniProt Q52WX2); settings: Compound concentration 1000.0 nM
[25] = molecular target: Cyclin-dependent kinase 7 (Homo sapiens) (UniProt P50613); settings: Compound concentration 1000.0 nM
[26] = molecular target: Serine/threonine-protein kinase PAK 5 (Homo sapiens) (UniProt Q9P286); settings: Compound concentration 1000.0 nM
[27] = molecular target: Serine/threonine-protein kinase DCLK3 (Homo sapiens) (UniProt Q9C098); settings: Compound concentration 1000.0 nM
[28] = molecular target: Mitogen-activated protein kinase kinase kinase 3 (Homo sapiens) (UniProt Q99759); settings: Compound concentration 1000.0 nM
[29] = test system: Tyrosine-protein kinase ABL1 (Homo sapiens), P00519 [F317L]; settings: Compound concentration 1000.0 nM
[30] = molecular target: Beta-2 adrenergic receptor (Homo sapiens) (UniProt P07550); settings: Compound concentration 10.0 uM
[31] = molecular target: Cyclin-G-associated kinase (Homo sapiens) (UniProt O14976); settings: Compound concentration 1000.0 nM
[32] = molecular target: Rhodopsin kinase GRK1 (Homo sapiens) (UniProt Q15835); settings: Compound concentration 1000.0 nM
[33] = molecular target: Death-associated protein kinase 2 (Homo sapiens) (UniProt Q9UIK4); settings: Compound concentration 1000.0 nM
[34] = molecular target: G protein-coupled receptor kinase 4 (Homo sapiens) (UniProt P32298); settings: Compound concentration 1000.0 nM
[35] = molecular target: Testis-specific serine/threonine-protein kinase 1 (Homo sapiens) (UniProt Q9BXA7); settings: Compound concentration 1000.0 nM
[36] = test system: Tyrosine-protein kinase ABL1 (Homo sapiens), P00519 [H396P]; settings: Compound concentration 1000.0 nM
[37] = test system: Receptor-type tyrosine-protein kinase FLT3 (Homo sapiens), P36888 [K663Q]; settings: Compound concentration 1000.0 nM
[38] = molecular target: Rho-associated protein kinase 1 (Homo sapiens) (UniProt Q13464); settings: Compound concentration 1000.0 nM
[39] = molecular target: Dual specificity mitogen-activated protein kinase kinase 5 (Homo sapiens) (UniProt Q13163); settings: Compound concentration 1000.0 nM
[40] = molecular target: Dual specificity mitogen-activated protein kinase kinase 1 (Homo sapiens) (UniProt Q02750); settings: Compound concentration 1000.0 nM
[41] = molecular target: Serine/threonine-protein kinase Sgk3 (Homo sapiens) (UniProt Q96BR1); settings: Compound concentration 1000.0 nM
[42] = molecular target: Tyrosine-protein kinase HCK (Homo sapiens) (UniProt P08631); settings: Compound concentration 1000.0 nM
[43] = molecular target: D(4) dopamine receptor (Homo sapiens) (UniProt P21917); settings: Compound concentration 10.0 uM
[44] = molecular target: Serine/threonine-protein kinase Sgk1 (Homo sapiens) (UniProt O00141); settings: Compound concentration 1000.0 nM
[45] = molecular target: Cyclin-dependent kinase 2 homolog (Plasmodium falciparum (isolate 3D7)) (UniProt P61075); settings: Compound concentration 1000.0 nM

Sequence of Dual specificity mitogen-activated protein kinase kinase 5 (Homo sapiens) (Q13163 whole entry): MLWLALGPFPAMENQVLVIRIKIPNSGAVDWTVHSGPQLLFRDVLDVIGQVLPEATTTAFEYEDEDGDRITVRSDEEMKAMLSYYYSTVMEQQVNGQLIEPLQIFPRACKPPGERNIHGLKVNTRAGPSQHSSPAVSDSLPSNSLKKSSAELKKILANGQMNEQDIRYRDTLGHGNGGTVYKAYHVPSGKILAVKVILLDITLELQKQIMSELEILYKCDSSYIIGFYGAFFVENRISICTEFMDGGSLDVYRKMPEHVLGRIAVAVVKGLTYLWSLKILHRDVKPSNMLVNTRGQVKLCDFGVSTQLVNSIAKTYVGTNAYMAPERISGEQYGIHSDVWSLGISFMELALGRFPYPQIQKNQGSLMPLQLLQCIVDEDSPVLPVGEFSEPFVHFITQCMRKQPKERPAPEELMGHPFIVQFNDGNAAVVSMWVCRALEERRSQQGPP
Sequence of Receptor-interacting serine/threonine-protein kinase 2 (Homo sapiens) (O43353 whole entry): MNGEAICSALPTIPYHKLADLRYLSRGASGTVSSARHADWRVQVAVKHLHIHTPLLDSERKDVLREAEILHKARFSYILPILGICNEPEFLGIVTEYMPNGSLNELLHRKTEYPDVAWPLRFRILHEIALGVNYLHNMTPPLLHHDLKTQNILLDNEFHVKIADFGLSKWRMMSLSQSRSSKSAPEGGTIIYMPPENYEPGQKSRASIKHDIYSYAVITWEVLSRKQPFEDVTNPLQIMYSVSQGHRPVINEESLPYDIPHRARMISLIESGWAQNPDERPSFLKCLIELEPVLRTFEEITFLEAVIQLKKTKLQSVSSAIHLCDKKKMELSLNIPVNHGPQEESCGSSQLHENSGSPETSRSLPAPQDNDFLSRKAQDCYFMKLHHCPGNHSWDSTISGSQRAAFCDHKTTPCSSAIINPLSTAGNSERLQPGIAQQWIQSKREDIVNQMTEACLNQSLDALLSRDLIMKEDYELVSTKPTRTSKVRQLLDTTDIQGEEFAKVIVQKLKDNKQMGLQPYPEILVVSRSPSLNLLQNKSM
Sequence of Mitogen-activated protein kinase kinase kinase kinase 4 (Homo sapiens) (O95819 2-1239 limits assumed): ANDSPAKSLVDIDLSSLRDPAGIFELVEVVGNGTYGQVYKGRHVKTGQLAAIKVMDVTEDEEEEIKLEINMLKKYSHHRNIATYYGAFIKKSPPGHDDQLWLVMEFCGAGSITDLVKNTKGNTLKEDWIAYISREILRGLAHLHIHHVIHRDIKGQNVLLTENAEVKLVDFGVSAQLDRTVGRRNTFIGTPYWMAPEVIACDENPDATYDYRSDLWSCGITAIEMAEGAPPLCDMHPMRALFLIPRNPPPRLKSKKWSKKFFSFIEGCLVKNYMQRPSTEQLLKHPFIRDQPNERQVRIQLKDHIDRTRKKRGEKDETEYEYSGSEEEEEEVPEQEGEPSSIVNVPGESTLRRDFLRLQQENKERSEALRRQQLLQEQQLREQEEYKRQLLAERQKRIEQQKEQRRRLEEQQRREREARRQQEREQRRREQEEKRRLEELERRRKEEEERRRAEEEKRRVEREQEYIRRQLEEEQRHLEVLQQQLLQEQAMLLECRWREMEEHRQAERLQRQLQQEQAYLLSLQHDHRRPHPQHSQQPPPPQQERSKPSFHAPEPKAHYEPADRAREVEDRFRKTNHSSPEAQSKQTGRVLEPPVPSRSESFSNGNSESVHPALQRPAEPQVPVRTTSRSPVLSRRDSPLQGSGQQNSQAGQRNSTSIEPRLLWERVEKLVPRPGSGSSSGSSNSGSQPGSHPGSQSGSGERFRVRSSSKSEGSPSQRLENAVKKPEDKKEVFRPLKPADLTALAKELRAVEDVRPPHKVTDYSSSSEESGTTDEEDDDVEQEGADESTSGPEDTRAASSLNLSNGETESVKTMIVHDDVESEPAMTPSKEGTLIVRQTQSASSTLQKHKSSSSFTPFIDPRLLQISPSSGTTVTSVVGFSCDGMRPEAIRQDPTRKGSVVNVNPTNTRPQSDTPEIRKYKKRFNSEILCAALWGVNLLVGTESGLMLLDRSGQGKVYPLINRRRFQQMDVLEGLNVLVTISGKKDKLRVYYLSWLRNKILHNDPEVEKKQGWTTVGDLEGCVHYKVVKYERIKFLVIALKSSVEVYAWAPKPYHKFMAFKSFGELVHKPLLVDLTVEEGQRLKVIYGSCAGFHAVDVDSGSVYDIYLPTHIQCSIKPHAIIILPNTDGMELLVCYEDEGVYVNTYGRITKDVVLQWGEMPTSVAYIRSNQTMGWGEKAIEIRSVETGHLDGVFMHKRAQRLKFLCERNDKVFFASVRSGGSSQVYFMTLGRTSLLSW
Sequence of Beta-2 adrenergic receptor (Homo sapiens) (P07550 whole entry, looked up): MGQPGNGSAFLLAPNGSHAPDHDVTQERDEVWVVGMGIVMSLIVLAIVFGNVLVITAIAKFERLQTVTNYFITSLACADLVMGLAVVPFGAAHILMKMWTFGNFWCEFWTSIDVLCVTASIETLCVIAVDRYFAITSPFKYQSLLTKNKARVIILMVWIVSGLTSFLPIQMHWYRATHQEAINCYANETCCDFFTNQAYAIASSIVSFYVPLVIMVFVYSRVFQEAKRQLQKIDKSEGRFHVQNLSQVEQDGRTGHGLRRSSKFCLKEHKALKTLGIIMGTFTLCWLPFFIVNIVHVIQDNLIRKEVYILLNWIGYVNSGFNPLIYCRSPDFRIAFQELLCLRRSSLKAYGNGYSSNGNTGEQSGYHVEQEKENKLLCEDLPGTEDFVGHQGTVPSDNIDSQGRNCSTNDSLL
Sequence of Cyclin-dependent kinase 7 (Homo sapiens) (P50613 whole entry): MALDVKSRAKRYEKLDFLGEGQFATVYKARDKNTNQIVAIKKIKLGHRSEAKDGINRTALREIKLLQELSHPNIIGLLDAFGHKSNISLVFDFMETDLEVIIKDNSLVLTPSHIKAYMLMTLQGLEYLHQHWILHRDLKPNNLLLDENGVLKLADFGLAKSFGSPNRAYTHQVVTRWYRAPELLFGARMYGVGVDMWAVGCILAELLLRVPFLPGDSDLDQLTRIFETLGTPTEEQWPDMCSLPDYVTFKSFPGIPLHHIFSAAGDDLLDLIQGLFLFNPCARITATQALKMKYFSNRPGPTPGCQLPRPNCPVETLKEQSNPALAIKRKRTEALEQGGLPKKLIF
Sequence of Death-associated protein kinase 2 (Homo sapiens) (Q9UIK4 whole entry, looked up): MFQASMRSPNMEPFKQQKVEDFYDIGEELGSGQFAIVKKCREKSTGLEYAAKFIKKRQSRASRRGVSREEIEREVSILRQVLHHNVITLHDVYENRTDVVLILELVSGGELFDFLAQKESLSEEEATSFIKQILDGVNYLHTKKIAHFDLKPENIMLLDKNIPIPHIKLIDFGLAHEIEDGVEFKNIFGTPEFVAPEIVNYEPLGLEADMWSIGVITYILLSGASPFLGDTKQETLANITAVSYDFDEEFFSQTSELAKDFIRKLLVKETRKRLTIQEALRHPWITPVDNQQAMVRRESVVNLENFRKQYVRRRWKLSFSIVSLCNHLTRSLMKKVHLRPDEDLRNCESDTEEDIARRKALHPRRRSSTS
Sequence of Serine/threonine-protein kinase BRSK2 (Homo sapiens) (Q8IWQ3 whole entry): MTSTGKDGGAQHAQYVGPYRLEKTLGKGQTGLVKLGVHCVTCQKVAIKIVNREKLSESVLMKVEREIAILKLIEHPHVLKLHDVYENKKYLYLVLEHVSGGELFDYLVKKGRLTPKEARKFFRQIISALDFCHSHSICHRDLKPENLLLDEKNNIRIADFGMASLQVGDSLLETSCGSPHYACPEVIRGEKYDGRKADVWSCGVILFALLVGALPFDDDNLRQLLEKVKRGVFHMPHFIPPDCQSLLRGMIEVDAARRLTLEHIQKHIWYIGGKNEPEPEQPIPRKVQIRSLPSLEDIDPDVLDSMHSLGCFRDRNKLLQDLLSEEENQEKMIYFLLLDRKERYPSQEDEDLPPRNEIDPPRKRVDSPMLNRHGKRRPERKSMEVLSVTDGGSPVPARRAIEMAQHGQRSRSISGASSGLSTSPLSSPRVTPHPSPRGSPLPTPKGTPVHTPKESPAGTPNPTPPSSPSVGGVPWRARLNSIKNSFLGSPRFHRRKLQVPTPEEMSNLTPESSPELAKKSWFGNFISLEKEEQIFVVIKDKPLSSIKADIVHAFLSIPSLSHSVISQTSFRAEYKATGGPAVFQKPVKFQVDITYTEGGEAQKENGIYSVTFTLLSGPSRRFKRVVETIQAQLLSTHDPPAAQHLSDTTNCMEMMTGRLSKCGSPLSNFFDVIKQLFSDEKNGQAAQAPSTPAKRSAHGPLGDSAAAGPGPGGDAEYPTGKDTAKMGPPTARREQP
Sequence of Serine/threonine-protein kinase Sgk3 (Homo sapiens) (Q96BR1 whole entry): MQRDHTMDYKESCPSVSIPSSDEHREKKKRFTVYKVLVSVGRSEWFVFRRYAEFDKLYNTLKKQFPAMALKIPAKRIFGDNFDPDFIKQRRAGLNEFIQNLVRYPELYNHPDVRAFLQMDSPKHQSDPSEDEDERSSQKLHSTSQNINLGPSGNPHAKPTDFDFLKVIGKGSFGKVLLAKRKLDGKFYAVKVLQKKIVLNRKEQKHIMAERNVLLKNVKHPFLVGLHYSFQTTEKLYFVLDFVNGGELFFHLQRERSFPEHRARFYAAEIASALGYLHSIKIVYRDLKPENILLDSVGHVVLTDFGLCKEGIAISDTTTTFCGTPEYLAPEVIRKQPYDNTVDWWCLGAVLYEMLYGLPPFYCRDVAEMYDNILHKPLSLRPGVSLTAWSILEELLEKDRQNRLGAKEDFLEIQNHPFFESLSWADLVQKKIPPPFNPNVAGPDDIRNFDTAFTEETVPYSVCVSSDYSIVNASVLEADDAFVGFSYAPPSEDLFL
Sequence of Serine/threonine-protein kinase SBK1 (Homo sapiens) (Q52WX2 whole entry): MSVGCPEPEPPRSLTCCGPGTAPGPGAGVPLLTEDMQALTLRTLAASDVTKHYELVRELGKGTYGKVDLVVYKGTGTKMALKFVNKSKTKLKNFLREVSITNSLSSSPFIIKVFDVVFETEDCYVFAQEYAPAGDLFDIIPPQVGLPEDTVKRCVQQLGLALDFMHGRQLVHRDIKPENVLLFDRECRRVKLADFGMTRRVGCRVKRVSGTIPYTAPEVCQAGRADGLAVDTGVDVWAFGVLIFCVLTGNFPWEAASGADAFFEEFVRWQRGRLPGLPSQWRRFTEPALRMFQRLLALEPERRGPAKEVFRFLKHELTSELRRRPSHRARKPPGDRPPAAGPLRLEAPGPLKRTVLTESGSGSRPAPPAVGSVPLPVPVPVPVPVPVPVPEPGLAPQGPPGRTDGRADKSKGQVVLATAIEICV

FC(F)(F)c1ccc2c(c1)nc(-c1cccnc1)n2C1CC1 [MSD-CYP11B2-Negative-control]
inactive: residual activity [1] 100% | residual activity [2] 90% | residual activity [3] 100% | residual activity [4] 100% | residual activity [5] 80% | residual activity [6] 100% | residual activity [7] 100% | residual activity [8] 97% | residual activity [9] 100% | residual activity [10] 100% | residual activity [11] 100% | residual activity [12] 100% | residual activity [13] 100% | residual activity [14] 100% | residual activity [15] 100% | residual activity [16] 80% | residual activity [17] 100% | residual activity [18] 99% | residual activity [19] 100% | residual activity [20] 95% | residual activity [21] 100% | residual activity [22] 100% | residual activity [23] 100% | residual activity [24] 100% | residual activity [25] 100% | residual activity [26] 100% | residual activity [27] 100% | residual activity [28] 100% | residual activity [29] 100% | inhibition [30] 1.56% | residual activity [31] 100% | residual activity [32] 100% | residual activity [33] 100% | residual activity [34] 100% | residual activity [35] 100% | residual activity [36] 82% | residual activity [37] 100% | residual activity [38] 100% | residual activity [39] 96% | residual activity [40] 94% | residual activity [41] 100% | residual activity [42] 100% | inhibition [43] -3.28% | residual activity [44] 100% | residual activity [45] 100%

CC(C)(O)c1cncc(-c2nc3ccc(F)cc3n2C2CC2)c1 [MSD-CYP11B2]
inactive: residual activity [1] 100% | residual activity [2] 100% | residual activity [3] 100% | residual activity [4] 100% | residual activity [5] 100% | residual activity [6] 100% | residual activity [7] 100% | residual activity [8] 100% | residual activity [9] 100% | residual activity [10] 95% | residual activity [11] 100% | residual activity [12] 100% | residual activity [13] 100% | residual activity [14] 100% | residual activity [15] 100% | residual activity [16] 96% | residual activity [17] 100% | residual activity [18] 99% | residual activity [19] 98% | residual activity [20] 100% | residual activity [21] 100% | residual activity [22] 72% | residual activity [23] 100% | residual activity [24] 100% | residual activity [25] 88% | residual activity [26] 100% | residual activity [27] 100% | residual activity [28] 99% | residual activity [29] 100% | inhibition [30] 2.65% | residual activity [31] 100% | residual activity [32] 100% | residual activity [33] 100% | residual activity [34] 100% | residual activity [35] 97% | residual activity [36] 85% | residual activity [37] 100% | residual activity [38] 99% | residual activity [39] 100% | residual activity [40] 100% | residual activity [41] 100% | residual activity [42] 100% | inhibition [43] -5.72% | residual activity [44] 100% | residual activity [45] 100%
